What was measured:
Assay in all cases: relative viability (nuclei count vs DMSO), 5 days (fraction); higher = more cells survive
Motesanib + AZD7762 = compound: CC1(C)CNc2cc(NC(=O)c3cccnc3NCc3ccncc3)ccc21 [Motesanib] + NC(=O)Nc1cc(-c2cccc(F)c2)sc1C(=O)N[C@H]1CCCNC1 [AZD7762] (partner 0.2 µM)
How it was run: (§1)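 Lung cancer cell lines were pin-tool dosed in 1536-well plates on the day after seeding, with either a lone drug or a fixed anchor-drug dose plus five library-drug doses (not always all listed) in √10 steps. Nuclei were counted on 4× images after 5 days. Relative viability is the ratio of treated-well to vehicle-well nuclei counts, with each value a median of duplicate plates.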

Motesanib + Pemetrexed = compound: CC1(C)CNc2cc(NC(=O)c3cccnc3NCc3ccncc3)ccc21 [Motesanib] + Nc1nc2[nH]cc(CCc3ccc(C(=O)N[C@@H](CCC(=O)O)C(=O)O)cc3)c2c(=O)[nH]1 [Pemetrexed] (partner 0.2 µM)
How it was run: as §1

[1] = compound: C[C@@]1(C(=O)Nc2ccc(F)nc2)CCCN1c1nc(Nc2cc(C3CC3)n[nH]2)c2cccn2n1 + N=C(N)NC(=N)NCCc1ccccc1 [Phenformin] (partner 250 µM)
How it was run: as §1

Motesanib + Tozasertib = compound: CC1(C)CNc2cc(NC(=O)c3cccnc3NCc3ccncc3)ccc21 [Motesanib] + Cc1cc(Nc2cc(N3CCN(C)CC3)nc(Sc3ccc(NC(=O)C4CC4)cc3)n2)n[nH]1 [Tozasertib] (partner 0.1 µM)
How it was run: as §1

Q: With SW 900 as the cell line, how does the relative viability (Motesanib + AZD7762; first compound 0.01 µM) read?
A: 0.787

Q: And the relative viability (Motesanib + AZD7762; first compound 0.03162 µM)?
A: 0.786

Q: And the relative viability (Motesanib + AZD7762; first compound 0.1 µM)?
A: 0.552

Q: What about the relative viability (Motesanib + AZD7762; first compound 0.3162 µM) of the same cell line?
A: 0.523

Q: What about the relative viability (Motesanib + AZD7762; first compound 1 µM) of the same cell line?
A: 0.726

Q: What about the relative viability (Motesanib + Pemetrexed; first compound 0.01 µM) of the same cell line?
A: 0.459

Q: And the relative viability (Motesanib + Pemetrexed; first compound 0.03162 µM)?
A: 0.416

Q: And the relative viability (Motesanib + Pemetrexed; first compound 0.1 µM)?
A: 0.356

Q: What about the relative viability (Motesanib + Pemetrexed; first compound 0.3162 µM) of the same cell line?
A: 0.301

Q: And the relative viability (Motesanib + Pemetrexed; first compound 1 µM)?
A: 0.303

Q: What about the relative viability ([1]; first compound 0.04 µM) of the same cell line?
A: 0.566

Q: What about the relative viability ([1]; first compound 0.1265 µM) of the same cell line?
A: 0.544

Q: What about the relative viability ([1]; first compound 0.4 µM) of the same cell line?
A: 0.596

Q: What about the relative viability ([1]; first compound 1.265 µM) of the same cell line?
A: 0.461

Q: And the relative viability (Motesanib + Tozasertib; first compound 0.01 µM)?
A: 0.599

Q: And the relative viability (Motesanib + Tozasertib; first compound 0.03162 µM)?
A: 0.524

Q: And the relative viability (Motesanib + Tozasertib; first compound 0.1 µM)?
A: 0.66

Q: What about the relative viability (Motesanib + Tozasertib; first compound 0.3162 µM) of the same cell line?
A: 0.51

Q: And the relative viability (Motesanib + Tozasertib; first compound 1 µM)?
A: 0.638

Source: the supplement of paper PMC10307832
